# Measurements published in US8822409B2, “Compositions and uses thereof for the treatment of acute respiratory distress syndrome (ARDS) and clinical disorders associated with therewith” (Phylogica Limited, priority 2007, dated 2014).
# “Also recorded” adds a separate entry of the source. Where no end group is shown, it is not given here. [ ]: non-standard residue; d: D form.
# How the values were obtained:
# [1] = tested on: C57/BL6 mice given intranasal LPS (animal model of ARDS and sepsis); assay: Neutrophil infiltration in BAL after intranasal peptide, LPS-induced mouse model of ARDS and sepsis (FIG. 1); type: in vivo; conditions: repeated dose co-administered with LPS (10 μg/mouse), BAL 6 hours later, n=5
# Protocol: FIG. 1 is a graphical representation showing the percentage of neutrophils (y-axis) in bronchoalveolar lavage (BAL) in 8-week to 12-week old C57/BL6 mice receiving various treatments indicated by numbers on the x-axis as follows:
# Columns 1-4 (open bars): Animals (n=5 per group) received either no LPS (column 1) or a dose of LPS intranasally (10 μg/mouse) and BAL was performed 1 hour (column 2), 4 hours (column 3) or 6 hours (column 4) later. No peptide was administered to these animals.
# Columns 5-7 (filled bars): Animals (n=5 per group) received an intranasal dose of 10 mg/kg body weight of retroinverted peptide analog D-PYC36-TAT (SEQ ID NO: 106; column 5) or D-PYC35-TAT (SEQ ID NO: 104; column 6), or 5 mg/kg body weight of retroinverted peptide analog D-PYC38-TAT (SEQ ID NO: 108; column 7), by a repeated dose of the same peptide analog for each group co-administered intranasally with LPS (10 μg/mouse) and BAL was performed 6 hours later.
# Column 8 (hatched bars): Animals (n=5) received an intranasal dose of 10 mg/kg body weight of a scrambled version of SEQ ID NO: 106 designated D-PYC36scrambled-TAT followed 1 hour later by a repeated dose of the same peptide analog co-administered intranasally with LPS (10 μg/mouse) and BAL was performed 6 hours later.
# BAL was performed on the animals using 1 ml GKN/0.2% BSA. Cell counts were obtained to determine total cell numbers and differential counts were obtained on cytocentrifuge slide preparations to elucidate the percentage neutrophils in BAL.
# 8-12 week old C57/B16 mice were purchased from the Animal Resource Center, Murdoch University, Western Australia and used for all experiments. All experiments were approved by the necessary institutional animal ethics committees and were performed in accordance with the National Health and Medical Research Council (NHMRC) Australian Code of Practice for the Care and Use of Animals for Scientific Purposes. […]
# [2] = tested on: female C57/BL6 mice given intranasal LPS (animal model of ARDS and sepsis); assay: Neutrophil infiltration in BAL after intravenous peptide injection, LPS-induced mouse model of ARDS and sepsis (FIG. 2); type: in vivo; conditions: intravenous 10 mg/kg 20 min before intranasal LPS (40 μg/mouse), repeat injections 2 and 4 hours post-LPS, BAL 6 hours after LPS
# Protocol: FIG. 2 is a graphical representation showing the percentage of neutrophils (y-axis) in bronchoalveolar lavage (BAL) in 8-week to 10-week old female C57/BL6 mice receiving various treatments indicated by numbers on the x-axis as follows:
# Column 1 (naïve): Animals received no LPS and BAL was performed 6 hours later. No peptide was administered to these animals.
# Column 2 (nil): Animals received an intranasal dose of E. coli LP (40 μg/mouse) and BAL was performed 6 hours later.
# Column 3 (D36-TAT x1): Animals received a single intravenous injection of 10 mg/kg body weight of retroinverted peptide analog D-PYC36-TAT (SEQ ID NO: 106) followed 20 min later by an intranasal dose of LPS (40 μg/mouse). BAL was performed 6 hours after LPS administration.
# Column 4 (D36-TATscr x1): Animals received a single intravenous injection of 10 mg/kg body weight of a peptide having a scrambled sequence relative to the retroinverted peptide analog D-PYC36-TAT (SEQ ID NO: 106) followed 20 min later by an intranasal dose of LPS (40 μg/mouse). BAL was performed 6 hours after LPS administration. […]
# [3] = intranasal 10 mg/kg body weight 1 hour before LPS
Substance,"percentage of neutrophils in bronchoalveolar lavage (BAL) [1, 3]",percentage of neutrophils in bronchoalveolar lavage (BAL) [2],percentage of neutrophils in bronchoalveolar lavage (BAL) ([1]; intranasal 5 mg/kg body weight 1 hour before LPS)
SEQ ID NO: 104: retroinverted peptide analog of SEQ ID NO: 57 fused to the TAT 10-mer with a linking glycine; AP-1 signaling inhibitor ([dR][dE][dR][dK][dS][dS][dS][dE][dI]GG[dS][dR][dI][dS][dQ][dY][dA]G[dR][dR][dR][dQ][dR][dR][dK][dK][dR]G; also: retro-inverso),significantly reduced; also recorded: significantly-reduced,–,–
SEQ ID NO: 106: retroinverted peptide analog of SEQ ID NO: 59 fused to the TAT 10-mer with a linking glycine; AP-1 signaling inhibitor ([dP][dK][dI][dS][dQ][dY]G[dQ][dR][dR][dR]G[dQ][dL]GG[dR][dR][dR][dQ][dR][dR][dK][dK][dR]G),significantly reduced; also recorded: significantly-reduced,significantly reduced; also recorded: significantly-reduced,–
SEQ ID NO: 108: retroinverted peptide analog of SEQ ID NO: 61 fused to the TAT 10-mer with a linking glycine; AP-1 signaling inhibitor ([dR][dH][dA][dP][dL][dA][dR]G[dS][dW][dR]G[dQ][dP][dQ][dQ]G[dP][dQ][dR][dR]G[dQ][dL]GG[dR][dR][dR][dQ][dR][dR][dK][dK][dR]G),–,–,significantly reduced; also recorded: significantly-reduced
